Assay results published in patent US20230172928A1 (priority 2020, published 2023).
Values joined by “and” are separate entries in the source; they are usually repeats but may differ in a detail not shown here. Equal values may be shown once. Read-outs that look alike come from different tables or passages of the source.

Tests used:
[1] = Adverse events of decreased left ventricular ejection fraction; parameters: species or system human; details: in vivo
Excerpt: Patients with EGFR-mutant NSCLC have a high disease control rate with EGFR inhibitors (e.g., erlotinib, gefitinib, osimertinib), but resistance invariably develops. Resistance mechanisms are heterogeneous, but commonly result in restoration of mutant EGFR signaling and/or amplification or overexpression of RTKs other than EGFR (such as MET) or of their ligands.

PC14 cells [2] = assay: Immunoblot of PC14 cell lysates (p-ERK, c-PARP, BIM); assay type: cell-based, human; details: nazartinib 0.1 or 0.3 μM, 3 μM TNO155 or combination, 4 h or 24 h
Method: For immunoblotting: Cells (200,000 to 750,000) in 2 mL growth media were seeded in 6-well plates (Corning, #3506). After 24 hours, cells were treated with compounds or growth factors at the indicated concentrations and duration. Cells were lysed on ice in RIPA buffer (Boston Bioproduct #BP-115) supplemented with 1 mM EDTA and Halt Protease and Phosphatase Inhibitor Cocktail (Thermo Fisher Scientific #1861281). Lysates were centrifuged at 14,000 rpm at 4° C. for 15 minutes and protein concentrations were determined using BCA protein assay (Thermo Fisher Scientific). […] The bound primary antibodies were visualized using Goat anti-rabbit IgG secondary antibody conjugated with Alexa Fluor 700 and goat anti-mouse IgG secondary antibody conjugated with IRDye 800 CW and scanning with an Odyssey Infrared Imager System (Li-Cor). […]

CYP3A4 = CYP3A4 (Homo sapiens, UniProt P08684); assay: CYP3A4 interaction / metabolism
Chain of CYP3A4 (P08684 whole entry): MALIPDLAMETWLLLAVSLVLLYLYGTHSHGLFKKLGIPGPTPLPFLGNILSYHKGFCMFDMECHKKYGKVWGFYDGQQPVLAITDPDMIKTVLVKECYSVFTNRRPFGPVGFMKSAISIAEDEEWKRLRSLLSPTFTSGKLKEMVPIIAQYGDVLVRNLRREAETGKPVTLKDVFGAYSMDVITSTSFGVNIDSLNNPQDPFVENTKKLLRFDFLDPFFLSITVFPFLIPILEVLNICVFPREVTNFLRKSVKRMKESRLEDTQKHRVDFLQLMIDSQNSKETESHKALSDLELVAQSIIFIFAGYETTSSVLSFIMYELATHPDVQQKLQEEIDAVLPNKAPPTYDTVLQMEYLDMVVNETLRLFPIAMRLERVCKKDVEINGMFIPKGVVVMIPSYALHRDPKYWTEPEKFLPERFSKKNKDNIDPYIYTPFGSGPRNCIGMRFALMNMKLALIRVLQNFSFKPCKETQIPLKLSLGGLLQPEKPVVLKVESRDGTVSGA

PC9 cells = assay: Cell proliferation / combination dose matrix assay (CellTiter-Glo); assay type: cell-based, human
Method: (§1) Human cancer cell lines originated from the CCLE (Cancer Cell Line Encyclopedia) authenticated by single-nucleotide polymorphism analysis and tested for mycoplasma infection using a PCR-based detection technology (IDEXX BioAnalytics) when CCLE was established in 2012. All cell lines used were directly thawed from the CCLE collection stock. All cell lines were cultured in RPMI Medium (ThermoFisher Scientific) except HT-29 (McCoy's 5A), RKO (MEMα), MDST8 (DMEM), A-427 (MEMα) and MIA PaCA-2 (DMEM), supplemented with 10% FBS (VWR). Cell lines were used within 15 passages of thawing and continuously cultured for less than 6 months.
(§2) For combination dose matrix assay, 2000 to 3000 cells were seeded in 96-well plates in 80 μL media per well. On the second day, serial dilutions of the two combination agents were subsequently added, each in 20 μL media at 6× of final indicated concentrations. 3 days later, cell viability was measured by the CellTiter-Glo Assay (Promega #G7573). The mean and standard deviation (n=3) of percentages of inhibition (relative to the DMSO-treated control) of compound-treated cells and synergy scores between the two compounds were determined. Synergy scores greater than 2 are considered to have synergistic rather than additive effects.
(§3) Statistical analyses were performed and curve fit and IC50 values were generated using GraphPad Prism 8 software. Statistical significance was determined using unpaired, paired student t test, or Mann-Whitney test. Significance was set at p=0.05.

HCC2279 cells = assay: as above; assay type: cell-based; details: Homo sapiens; HCC2279, EGFR ex19del
Method: as §1, §2, §3

NCI-H3255 cells = assay: as above; assay type: cell-based; details: Homo sapiens, NCI-H3255, NCI-H3255, EGFR L858R
Method: as §1, §2, §3

HCC4006 cells = assay: as above; assay type: cell-based; details: Homo sapiens; HCC4006, EGFR ex19del
Method: as §1, §2, §3

NCI-H1650 cells = assay: as above; assay type: cell-based; details: Homo sapiens; NCI-H1650, EGFR ex19del
Method: as §1, §2, §3

[3] = system: patients with EGFRmutated NSCLC; assay: First-in-human study of nazartinib (CEGF816X2101); assay type: in vivo; details: 75 mg to 350 mg QD
Method: Nazartinib has been studied in 7 clinical trials.
(§4) The starting dose of nazartinib in this study is 150 mg QD, dosed continuously. In CEGF816X2101, the first-in-human study of nazartinib, doses of nazartinib from 75 mg daily to 350 mg daily were investigated. […] Thus the starting dose of 20 mg QD, 2 weeks on/1 week off provides an adequate tolerability margin for combination with nazartinib 150 mg QD.

HCC827 cells = assay: Cell proliferation / combination dose matrix assay (CellTiter-Glo); assay type: cell-based; details: Homo sapiens, HCC827, HCC827, EGFR ex19del
PC14 cells [4] = assay: as above; assay type: cell-based, human; details: for IC50: Homo sapiens, PC-14, PC14, EGFR ex19del
Method: (§5) Human cancer cell lines originated from the CCLE (Cancer Cell Line Encyclopedia) authenticated by single-nucleotide polymorphism analysis and tested for mycoplasma infection using a PCR-based detection technology (IDEXX BioAnalytics) when CCLE was established in 2012. All cell lines used were directly thawed from the CCLE collection stock. All cell lines were cultured in RPMI Medium (ThermoFisher Scientific) except HT-29 (McCoy's 5A), RKO (MEMα), MDST8 (DMEM), A-427 (MEMα) and MIA PaCA-2 (DMEM), supplemented with 10% FBS (VWR). Cell lines were used within 15 passages of thawing and continuously cultured for less than 6 months. For combination dose matrix assay, 2000 to 3000 cells were seeded in 96-well plates in 80 μL media per well. On the second day, serial dilutions of the two combination agents were subsequently added, each in 20 μL media at 6× of final indicated concentrations. 3 days later, cell viability was measured by the CellTiter-Glo Assay (Promega #G7573). The mean and standard deviation (n=3) of percentages of inhibition (relative to the DMSO-treated control) of compound-treated cells and synergy scores between the two compounds were determined. […] Statistical analyses were performed and curve fit and IC50 values were generated using GraphPad Prism 8 software. Statistical significance was determined using unpaired, paired student t test, or Mann-Whitney test. Significance was set at p=0.05. […] After 3 days (PC14) or 6 days (NCI-H1975), cell proliferation was measured using the Cell Titer-Glo® assay and luminescent signals of each dose combination were normalized to that of the DMSO (vehicle control) group.

NCI-H1975 cells = assay: as above; assay type: cell-based, human; details: for IC50: Homo sapiens, NCI-H1975, EGFR L858R/T790M
Method: as §5

[5] = system: pERK in KYSE-520 (esophageal squamous cell carcinoma) cells; assay: in vitro pERK inhibition; assay type: cell-based; details: Homo sapiens
[6] = system: KYSE-520 (esophageal squamous cell carcinoma) cells; assay: in vitro antiproliferation; assay type: cell-based; details: Homo sapiens
[7] = system: DETROIT-562 (pharyngeal squamous cell carcinoma) cells; assay: in vitro antiproliferation; assay type: cell-based; details: Homo sapiens
[8] = system: EGFR L858R model 29667HXXTM; details: osimertinib 10 mpk daily, TNO155 10 mpk BID
[9] = system: EGFR-dependent DETROIT-562 cancer cell line; assay: In vivo SHP2 inhibition and efficacy, DETROIT-562 model; details: orally-administered, 20 mg/kg
[10] = mice
[11] = system: EGFR L858R model 29665HXXTM; details: osimertinib 10 mpk daily, TNO155 10 mpk BID
[12] = TNO155 regimens tested in patients; assay type: in vivo, human; details: 60 mg QD 2 weeks on/1 week off and 40 mg QD 3 weeks on/1 week off
Method: as §4

[13] = system: EGFR L858R model 29666HXXTM; details: osimertinib 10 mpk daily, TNO155 10 mpk BID
[14] = system: pERK in DETROIT-562 (pharyngeal squamous cell carcinoma) cells; assay: in vitro pERK inhibition; assay type: cell-based; details: Homo sapiens
[15] = Tagrisso prescribing information; cited from earlier work
[16] = Homo sapiens, PC-9, PC9, EGFR ex19del

Row | Compound | p-ERK levels (PC14 cells [2]) | IC50 (PC9 cells; [16]) | IC50 (HCC2279 cells) | IC50 (HCC4006 cells) | IC50 (NCI-H1650 cells) | IC50 (PC14 cells [4]) | IC50 (NCI-H1975 cells) | anti-tumor activity (tumor volume) [8] | anti-tumor activity (tumor volume) [11] | anti-tumor activity (tumor volume) [13] | also measured
1 | Cc1cc(C(=O)Nc2nc3cccc(Cl)c3n2[C@@H]2CCCCN(C(=O)/C=C/CN(C)C)C2)ccn1 [Nazartinib, (R,E)-N-(7-chloro-1-(1-(4-(dimethylamino)but-2-enoyl)azepan-3-yl)-1H-benzo[d]imidazol-2-yl)-2-methylisonicotinamide] | rebound of p-ERK levels was observed after 24 h | 10 nM | > 3000 nM | 60 nM | > 3000 nM | 50 nM | 170 nM |  |  |  | adverse events of decreased left ventricular ejection fraction [1]: not associated with adverse events of decreased left ventricular ejection fraction; metabolism (CYP3A4): primarily metabolized by CYP3A4; IC50 (NCI-H3255 cells): 10 nM; anti-tumor efficacy [3]: anti-tumor efficacy was observed at all doses; maximum tolerated dose [3]: not established; IC50 (HCC827 cells): 40 nM
2 | C[C@@H]1OCC2(CCN(c3cnc(Sc4ccnc(N)c4Cl)c(N)n3)CC2)[C@@H]1N [TNO155, (3S,4S)-8-(6-amino-5-((2-amino-3-chloropyridin-4-yl)thio)pyrazin-2-yl)-3-methyl-2-oxa-8-azaspiro[4.5]decan-4-amine] | effectively reduced p-ERK levels at 4 h but also suffered a rebound at 24 h | < 1500 nM | > 10000 nM | > 10000 nM | > 10000 nM | 5010 nM | > 10000 nM | minimal activity | minimal activity | effectively slowed down the tumor growth | CYP3A4 induction / inhibition (CYP3A4; human): neither an inducer nor inhibitor of CYP3A4; IC50 [5]: 8 nM and 0.0034 µg/mL; IC50 (PC9 cells; PC9, EGFR ex19del): 1460 nM; IC50 [6]: 100 nM; IC50 [7]: 470 nM; decrease in DUSP6 mRNA transcript [9]: approximately 95%; regression ([9]; twice-daily schedule): 47%; half-life [10]: short half-life; maximum tolerated dose ([10]; twice a day (BID)): 20 mg per kilogram body weight (mpk); tolerability [12]: tolerated; single agent activity (PC14 cells [4]; PC14, low concentrations, e.g. 0.124 μM): lacks single agent activity; single agent activity (NCI-H1975 cells; NCI-H1975, low concentrations, e.g. 0.124 μM): lacks single agent activity; IC50 [14]: 35 nM
3 | C=CC(=O)Nc1cc(Nc2nccc(-c3cn(C)c4ccccc34)n2)c(OC)cc1N(C)CCN(C)C [osimertinib, reference compound] |  |  |  |  |  |  |  | modest | strong | only transient efficacy | adverse events of decreased left ventricular ejection fraction [15]: Such events have been described
